≈ marks a conversion by molar mass, not a printed value. Counter-ions that a name gives are not always drawn. Like-named read-outs stand apart in the source and are kept apart here. Each block holds one compound with its values, some of them ahead of it.
Legend:
[1] = Hygroscopicity test by dynamic vapor sorption (DVS); format: physicochemical
Description: The dynamic vapor sorption (DVS) curve was collected on DVS IntrInsic from SMS (surface measurement systems). The relative humidity at 25°C was corrected using the deliquescence points of LiCl, Mg(NO3)2, and KCl. Table 18 DVS test parameters
The percentage change in sample mass was collected under constant temperature at 25°C as humidity varied from 0%RH to 95%RH.

[2] = Solid-state stability (XRPD and HPLC after open storage); format: physicochemical; details: for Crystal form: XRPD
Description: The purity test, dynamic solubility test, and stability test in the assay were measured using an Agilent 1260 high-performance liquid chromatograph, and the salt formation molar ratio of ions was tested by ion chromatography, and the analytical conditions are shown in Table 19 and Table 20. Table 19 High-performance liquid chromatography test conditions

[3] = Variable humidity XRPD (VH-XRPD); format: physicochemical
Excerpt: The XRPD pattern was collected on an X-ray powder diffraction analyzer produced by PANalytacal, and the scanning parameters are shown in Table 16. Table 16 XRPD test parameters
Under low-humidity conditions (e.g., 30% RH), the sample reverts to the anhydrous crystal form A of the fumarate salt.

[4] = Dynamic solubility experiment at 37°C (water, SGF, FaSSIF, FeSSIF); details: for S: solubility: solid feed 10 mg/mL; for pH: pH value of the filtrate
Description: (§2) Rotating mixing was carried out at 37°C at a solid feed concentration of 10 mg/mL (calculated as the compound of Formula I). […] After sampling at each time point, the samples were centrifuged (10000 rpm) and filtered (0.45 µm PTFE filter head), and the HPLC concentration and pH value of the filtrate were measured.
(§3) 100 mg of NaCl and 50 mg of Triton X-100 were weighed into a 50 mL volumetric flask, and purified water was added to complete dissolution. 816 µL of 1 M hydrochloric acid was added thereto, and the pH was adjusted to 1.8 with 1 M hydrochloric acid or 1 M NaOH solution. Purified water was added to make up to volume.
(§4) 340 mg of anhydrous NaH2PO4 and 620 mg of NaCl were weighed into a 100 mL volumetric flask. Purified water was added to complete dissolution, followed by addition of 55.44 µL of 50% NaOH solution, and the pH was adjusted to 6.5 using 1M HCl or 1M NaOH solution. Purified water was added to make up to volume. 110 mg of SIF powder was then weighed into a 50 mL volumetric flask, added with the above solution to complete dissolution and make up to volume.
(§5) 0.82 mL of glacial acetic acid and 1.18 g of NaCl were added to a 100 mL volumetric flask. Purified water was added to complete dissolution, followed by addition of 528 µL of 50% NaOH solution, and the pH was adjusted to 5.0 using 1M HCl or 1M NaOH solution. Purified water was added to make up to volume. 560 mg of SIF powder was then weighed into a 50 mL volumetric flask, added with the above solution to complete dissolution and make up to volume.

tubulin = target: T1, tubulin (Sus scrofa, UniProt P02550+P02554); assay: Inhibition test of tubulin monomer polymerization (Tubulin polymerization assay kit, fluorescence); format: biochemical; details: 5 µL of 12.5 µM compound solution; fluorescence ex 360 nm / em 420 nm, 37°C; larger value = lower inhibitory efficiency
T1 construct: purchased cytoskeleton BK011P
T1 sequence (P02550 whole entry): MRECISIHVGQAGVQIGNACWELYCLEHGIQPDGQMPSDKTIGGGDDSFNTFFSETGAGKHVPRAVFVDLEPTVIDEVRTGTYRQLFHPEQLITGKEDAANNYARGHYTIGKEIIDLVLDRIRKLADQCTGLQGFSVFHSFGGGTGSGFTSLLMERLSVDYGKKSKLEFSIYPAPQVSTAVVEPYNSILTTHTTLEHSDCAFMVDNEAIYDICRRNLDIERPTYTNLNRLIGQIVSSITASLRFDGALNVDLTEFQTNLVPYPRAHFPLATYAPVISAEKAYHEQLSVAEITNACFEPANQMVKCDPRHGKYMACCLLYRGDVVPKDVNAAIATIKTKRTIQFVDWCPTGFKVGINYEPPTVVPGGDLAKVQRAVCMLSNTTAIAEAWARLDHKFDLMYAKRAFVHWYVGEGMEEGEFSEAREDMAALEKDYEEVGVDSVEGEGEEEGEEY
T1 sequence (P02554 whole entry): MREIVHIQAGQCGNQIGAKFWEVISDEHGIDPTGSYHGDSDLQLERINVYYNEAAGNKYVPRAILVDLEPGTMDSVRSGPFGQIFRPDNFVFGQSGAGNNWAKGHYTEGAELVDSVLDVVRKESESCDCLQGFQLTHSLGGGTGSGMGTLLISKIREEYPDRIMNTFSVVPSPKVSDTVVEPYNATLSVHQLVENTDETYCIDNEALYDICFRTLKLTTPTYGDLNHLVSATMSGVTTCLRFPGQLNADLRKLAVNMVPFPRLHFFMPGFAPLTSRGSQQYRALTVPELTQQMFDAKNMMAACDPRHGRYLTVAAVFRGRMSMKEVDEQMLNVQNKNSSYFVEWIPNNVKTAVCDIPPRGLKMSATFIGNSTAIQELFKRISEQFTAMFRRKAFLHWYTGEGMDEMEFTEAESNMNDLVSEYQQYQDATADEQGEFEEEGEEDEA
Description: Tubulin polymerization assay kit (cytoskeleton, Cat. # BK011P) was used to conduct the compound inhibition test of tubulin monomer polymerization.
Before the test, the 96-well plate (Corning Costar, Cat. # 3686) supplied with the kit was first placed in a microplate reader (MD, SpectraMax M5) and heated to 37°C, maintained for 10 minutes. The 96-well plate was then removed, and 5 µL of 12.5 µM compound solution or blank solution was added thereto. The 96-well plate was then placed back into the microplate reader and incubated at 37°C for 1 minute to heat the compound solution to 37°C. The 96-well plate was removed and 50 µL of reaction mixture prepared according to the supplier's instructions was quickly added to each well, completing the sample addition within 1 minute to avoid the formation of bubbles. The 96-well plate was then immediately placed back into the microplate reader, shaken for 5 seconds, and using the Kinetic mode, continuous detection was carried out at 37°C for 30 to 60 minutes under the conditions of excitation light at 360 nm and emission light at 420 nm, with detection every 30 seconds. Taking the detection time as the X-axis and the fluorescence signal value as the Y-axis, the tubulin monomer polymerization curve was obtained. As shown in FIG. 66 and Table 40, the larger the Vmax value and the higher the maximum fluorescence signal value of the polymerization curve, the lower the inhibitory efficiency of the compound.

[5] = test system: Human cutaneous squamous cell carcinoma cell A-431; assay: Cell proliferation inhibition test, A-431; format: cell-based; details: A-431, 96 h, 4 days incubation
Description: (§1) Human cutaneous squamous cell carcinoma cell A-431 (ATCC, CRL-1555) and actinic keratosis patient-derived cell HT 297.T (ATCC, CRL-7782) proliferation assays were used to detect the inhibitory effect of small molecular compounds on cell proliferation.
A-431 cells and HT 297.T cells were cultured in DMEM medium containing 10% fetal bovine serum and grown at 37°C in a 5% CO2 incubator. Cells on logarithmic phase were seeded into a 96-well cell culture plate at 1000 cells/well, 100 µL per well, and then cultured overnight at 37°C in a 5% CO2 incubator. The next day, 100 µL of gradient-diluted 2× test compound solution was added to each well, with DMSO serving as a positive control, and 10 µM staurosporine (Aladdin, S102392) was set as a negative control group. After the addition of the compounds, the culture plate was incubated for another 4 days at 37°C in a 5% CO2 incubator. After incubation, the Steady-Glo® luciferase assay system (Promega, G9243) was used according to the supplier's instructions to measure the fluorescence signal value on the Envision 2104 Multilabel Reader. The inhibition rate was calculated by the following formula, then the curve was plotted with the Log value of the inhibitor concentration as the X-axis and the inhibition rate as the Y-axis, and the IC50 was calculated using Graphpad 8.0. [formula] […]

[6] = test system: actinic keratosis patient-derived cell HT 297.T; assay: Cell proliferation inhibition test, HT 297.T; format: cell-based, Human; details: Homo sapiens, 96 h; 4 days incubation
Description: as §1
A-431 cells and HT 297.T cells were cultured in DMEM medium containing 10% fetal bovine serum and grown at 37°C in a 5% CO2 incubator. Cells on logarithmic phase were seeded into a 96-well cell culture plate at 1000 cells/well, 100 µL per well, and then cultured overnight at 37°C in a 5% CO2 incubator. The next day, 100 µL of gradient-diluted 2× test compound solution was added to each well, with DMSO serving as a positive control, and 10 µM staurosporine (Aladdin, S102392) was set as a negative control group. After the addition of the compounds, the culture plate was incubated for another 4 days at 37°C in a 5% CO2 incubator. After incubation, the Steady-Glo® luciferase assay system (Promega, G9243) was used according to the supplier's instructions to measure the fluorescence signal value on the Envision 2104 Multilabel Reader. The inhibition rate was calculated by the following formula, then the curve was plotted with the Log value of the inhibitor concentration as the X-axis and the inhibition rate as the Y-axis, and the IC50 was calculated using Graphpad 8.0. [formula] Table 41: Inhibition results of test compounds on proliferation activity of A-431 and HT 297.T cells

[7] = Thermodynamic solubility test; format: physicochemical; details: thermodynamic from solid, 4 mg/mL, overnight at room temperature
Description: Phosphate buffer saline (PBS) with a pH of 7.4, FeSSIF solution with a pH of 6.5, and FaSSGF solution with a pH of 1.6 were prepared. The compound was accurately weighed and added to prepared phosphate buffer saline with a pH of 7.4, FeSSIF solution with a pH of 6.5, and FaSSGF solution with a pH of 1.6 to prepare into a solution with a concentration of 4 mg/mL. The solution was shaken at a speed of 1000 rpm for 1 hour, and then incubated overnight at room temperature. The incubated solution was centrifuged at 12,000 rpm for 10 minutes to remove undissolved particles, and the supernatant was transferred to a new centrifuge tube. After the supernatant was appropriately diluted, an acetonitrile solution containing internal standard was added, and a standard curve prepared with the same matrix was used for quantification. Table 42: Thermodynamic solubility test results

[8] = Pharmacokinetic test in mice; format: in vivo; details: mouse, plasma, male ICR mice
Description: For the pharmacokinetic test in mice, 3 male ICR mice, 20 to 25 g, were used, fasted overnight, and administered by tail vein injection (1 mg/kg or 5 mg/kg). Blood was collected before the administration, and at 15 min, 30 min, 1 hour, 2 hours, 4 hours, 8 hours, and 24 hours after the administration. Another 3 mice were taken and administered by oral gavage (5 mg/kg), and blood was collected before the administration, and at 15 min, 30 min, 1 hour, 2 hours, 4 hours, 8 hours, and 24 hours after the administration. Blood samples were centrifuged at 6800 g at 2 to 8°C for 6 min, and plasma was collected and stored at -80°C. The plasma at each time point was taken and added with an acetonitrile solution containing internal standard in 3 to 5 times the amount. The mixture was vortexed and mixed for 1 min, and centrifuged at 13,000 rpm at 4°C for 10 min. The supernatant was collected, added with water in 3 times the amount, and mixed. An appropriate amount of the mixture was taken for LC-MS/MS analysis. The main pharmacokinetic parameters were analyzed using WinNonlin 7.0 software with non-compartmental model. Table 43: Results 1 of pharmacokinetic tests in mice

[9] = Human liver microsome stability test; format: in vitro ADME; details: human liver microsomes, NADPH, 37°C, 0-45 min
Description: The human liver microsome stability test was performed by incubating the compound and human liver microsomes in vitro. First, the compound to be tested was prepared into a 10 mM stock solution in DMSO solvent, and then the compound was diluted to 0.5 mM with acetonitrile. Human liver microsomes (Corning) were diluted with PBS into a microsome/buffer solution, and the solution was used to dilute 0.5 mM compound into a working solution, in which the concentration of the compound was 1.5 µM, and the concentration of human liver microsomes was 0.75 mg/mL. A deep-well plate was taken, 30 µL of the working solution was added per well, and then 15 µL of pre-heated 6 mM NADPH solution was added thereto to initiate a reaction, and the reaction was incubated at 37°C. At 0, 5, 15, 30 and 45 min of the incubation, 135 µL of acetonitrile was added to the corresponding wells to terminate the reaction. After the reaction was terminated with acetonitrile at the last time point of 45 min, the deep-well plate was vortexed and shaken for 10 min (600 rpm), and then centrifuged for 15 min. After centrifugation, the supernatant was collected, and added with purified water in a ratio of 1:1 to perform LC-MS/MS detection. A ratio of a peak area of compound to a peak area of internal standard at each time point was obtained, and the peak area ratios of the compound at 5, 15, 30 and 45 min were compared with the peak area ratio at 0 min to calculate the remaining percentage of the compound at each time point. T1/2 was calculated by using GraphPad 5 software. Table 45: Results of human liver microsome stability test

[10] = intravenous injection administration (1 mg/kg)
[11] = oral gavage administration (5 mg/kg)

Description for physchem: as §2, §3, §4, §5

- hygroscopicity ([1]; DVS, 25°C, 0%RH to 95%RH, listed as crystal form A of the fumarate salt): significantly hygroscopic above 70% RH
- weight change in DVS test ([1]; high-humidity conditions (>70% RH)): significant weight gain
- Purity (area%) ([2]; 25°C/60%RH/open, 1 week): 97.02 area%
- Relative to initial (%) ([2]; 25°C/60%RH/open, 1 week): 100.0%
- Crystal form ([2]; 25°C/60%RH/open, 1 week): Crystal form A of fumarate salt
- Purity (area%) ([2]; 40°C/75%RH/open, 1 week): 97.09 area%
- Relative to initial (%) ([2]; 40°C/75%RH/open, 1 week): 100.1%
- Crystal form ([2]; 40°C/75%RH/open, 1 week): Crystal form A of fumarate salt
- Purity (area%) ([2]; Initial): 96.99 area%
- XRPD change at high humidity ([3]; placed at 85% RH): shift in diffraction peaks
- solubility at 1 h (physchem; fessif): 3630 µg/mL
- solubility at 4 h (physchem; fessif): 3600 µg/mL
- solubility at 24 h (physchem; fessif): 3610 µg/mL
- solubility at 1 h (physchem; sgf): 9650 µg/mL
- solubility at 4 h (physchem; sgf): 9820 µg/mL
- solubility at 24 h (physchem; sgf): 9170 µg/mL
- S: solubility ([4]; FaSSIF, 1 hour, 60 min): 8720 µg/mL
- S: solubility ([4]; FaSSIF, 4 hours, 240 min): 8940 µg/mL
- S: solubility ([4]; FaSSIF, 24 hours, 1440 min): 8240 µg/mL
- S: solubility ([4]; H2O, 1 hour, 60 min): 9440 µg/mL
- S: solubility ([4]; H2O, 4 hours, 240 min): 9720 µg/mL
- S: solubility ([4]; H2O, 24 hours, 1440 min): 9380 µg/mL
- pH ([4]; FaSSIF, 1 hour): 4.3
- pH ([4]; FaSSIF, 4 hours): 4.4
- pH ([4]; FaSSIF, 24 hours): 4.4
- pH ([4]; FeSSIF, 1 hour): 4.6
- pH ([4]; FeSSIF, 4 hours): 4.6
- pH ([4]; FeSSIF, 24 hours): 4.6
- pH ([4]; H2O, 1 hour): 4.0
- pH ([4]; H2O, 4 hours): 4.0
- pH ([4]; H2O, 24 hours): 4.0
- pH ([4]; SGF, 1 hour): 3.4
- pH ([4]; SGF, 4 hours): 3.4
- pH ([4]; SGF, 24 hours): 3.4
Structure (SMILES): Cc1cc(OCCN2C[C@H]3COC[C@H]3C2)ccc1-c1ccc(CC(=O)NCc2ccccc2)nc1 [Crystal form A of fumarate salt]
- crystal form after return to low humidity ([3]; returned to 30% RH): converted back to the crystal form A of the fumarate salt

- Maximum signal value (tubulin): 611
- IC50 [5]: 40.3 nM
- solubility ([7]; FeSSIF solution, FeSSIF (pH 6.5), read-out: Solubility (µg/mL) FeSSIF (pH 6.5)): 60.5 µg/mL (≈ 140 µM)
- solubility ([7]; phosphate buffer saline (PBS), aqueous buffer, PBS (pH 7.4), read-out: Solubility (µg/mL) PBS (pH 7.4)): 9.77 µg/mL (≈ 22.6 µM)
- AUC(0-t) [8, 10]: 525 ng·h/mL
- clearance [8, 10]: 31.3 mL/min/kg
- AUC(0-t) [8, 11]: 1820 ng·h/mL
- Cmax [8, 11]: 1010 ng/mL
- half-life at 1 µM [9]: 32.2 min
Structure (SMILES): O=C(Cc1ccc(-c2ccc(OCCN3CCOCC3)cc2)cn1)NCc1ccccc1 [Control compound, Tirbanibulin, reference compound]
- IC50 [6]: 85.4 nM
